The values that follow come from ChEMBL document CHEMBL1132943, “Synthesis of B-ring homologated estradiol analogues that modulate tubulin polymerization and microtubule stability” (J Med Chem, 2000).

The structures appear in SMILES notation.

Broadly, the EC50 is the concentration that produces a half-maximal response. One may read the IC50 as the concentration needed to halve the response being measured. Low values mean greater potency in that assay, high ones weaker potency in that assay. As a reminder, the inhibition is the change of the read-out against control, counted positive when it falls. Low readings indicate little suppression, high ones strong suppression.

Test [1] deals with T1, Tubulin (Bos taurus, UniProt Q6B856+Q862F3). As to the kind of experiment: Effective concentration for enhancement of tubulin assembly rate was determined. It counts as functional.
T1 sequence (Q6B856 whole entry): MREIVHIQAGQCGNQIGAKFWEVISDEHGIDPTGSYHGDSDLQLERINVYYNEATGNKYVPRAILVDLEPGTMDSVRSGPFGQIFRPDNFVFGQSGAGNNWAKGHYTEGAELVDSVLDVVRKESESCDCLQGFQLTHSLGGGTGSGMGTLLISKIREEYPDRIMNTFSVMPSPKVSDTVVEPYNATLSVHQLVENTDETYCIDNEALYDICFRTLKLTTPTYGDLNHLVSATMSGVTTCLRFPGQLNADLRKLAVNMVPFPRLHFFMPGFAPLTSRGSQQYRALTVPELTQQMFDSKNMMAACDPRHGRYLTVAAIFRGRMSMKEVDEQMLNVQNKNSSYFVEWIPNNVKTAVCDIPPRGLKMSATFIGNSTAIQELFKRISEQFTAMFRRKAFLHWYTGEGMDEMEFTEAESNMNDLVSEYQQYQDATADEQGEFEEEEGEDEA
T1 sequence (Q862F3 whole entry): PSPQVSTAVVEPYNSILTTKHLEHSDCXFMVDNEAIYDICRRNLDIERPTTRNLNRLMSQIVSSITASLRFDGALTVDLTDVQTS
The next test has as its system Cell line. As to the kind of experiment: Tested for cytotoxicities and mean graph midpoint (MGM) for growth inhibition of all 55 human cell lines. It counts as functional.
For test [2], the target named is T1, Tubulin. As to the kind of experiment: Inhibition of polymerization of purified bovine tubulin. It counts as functional.
Test [3] has as its target T2, Tubulin (Bos taurus) (UniProt Q6B856+Q862L2+Q862F3). As to the kind of experiment: Compound was evaluated for inhibition of colchicine binding to tubulin in experiment I. It counts as protein assay. The following applies: concentration not given here.
Test [4] addresses T2, Tubulin (Bos taurus). As to the kind of experiment: Compound was evaluated for inhibition of colchicine binding to tubulin in experiment II. The following applies: concentration not given here. It counts as protein assay.

As for `CCOc1cc2c(cc1OC(C)=O)/C(=N/OC)CCC1C2CC[C@@]2(C)C1CC[C@@H]2OC(C)=O` (some centres undefined), on Tubulin [1], the EC50 is above 200 µM. `CCOc1cc2c(cc1O)C=CCC1C2CC[C@@]2(C)C1CC[C@@H]2O` (some centres undefined) came in with an MGM with Cell line of 1.32 µM. On Tubulin [2], it took 0.85 µM to reach half-maximal inhibition (IC50). Molecule `COc1cc2c(cc1O)CC[C@@H]1[C@@H]2CC[C@]2(C)[C@@H](O)CC[C@@H]12` [2-METHOXYESTRADIOL] yielded an MGM in the test on Cell line of 1.3 µM. On Tubulin [2], half-maximal inhibition (IC50) was put at 1.4 µM. The inhibition at Tubulin (Bos taurus) [3] came out at 19%; at Tubulin (Bos taurus) [4] it was 60%. In turn, `CCOc1cc2c(cc1O)[C@@H](NC(C)=O)CCC1C2CC[C@@]2(C)C1CC[C@@H]2O` (some centres undefined) came in with an MGM in the test with Cell line of 7 µM. In addition, on Tubulin [2], 6.9 µM corresponded to half-maximal inhibition (IC50). For `CCOc1cc2c(cc1OC(C)=O)C(=O)C[C@@H]1[C@@H]2CC[C@]2(C)[C@@H](OC(C)=O)CC[C@@H]12`, the EC50 at Tubulin [1] is above 400 µM.

As to `CCOc1cc2c(cc1O)/C(=N\OC)C[C@@H]1[C@@H]2CC[C@]2(C)[C@@H](O)CC[C@@H]12`, in the test on Cell line, the MGM turned out to be 0.27 µM. The molecule `CCOc1cc2c(cc1O)CC[C@@H]1[C@@H]2CC[C@]2(C)[C@@H](O)CC[C@@H]12` came in with an MGM with Cell line of 0.076 µM. The IC50 against Tubulin [2] turned out to be 0.66 µM. The inhibition at Tubulin (Bos taurus) [3] was 51%; on Tubulin (Bos taurus) [4] it was 87%. `CCOc1cc2c(cc1O)/C(=N/OC)CCC1C2CC[C@@]2(C)C1CC[C@@H]2O` (some centres undefined): in the test on Cell line, the MGM stood at 24 µM. At Tubulin [2], this molecule registered an IC50 of 30 µM. Turning to `CCOc1cc2c(cc1O)CC(=O)CC1C2CC[C@@]2(C)C1CC[C@@H]2O` (some centres undefined), in the test on Cell line, the MGM turned out to be 11.5 µM. It took 8.1 µM to reach half-maximal inhibition against Tubulin [2] (IC50).

In the test on Cell line, `CCOc1cc2c(cc1O)C/C(=N\NS(=O)(=O)c1ccc(C)cc1)CC1C2CC[C@@]2(C)C1CC[C@@H]2O` (some centres undefined) yielded an MGM of 15.5 µM. Besides, the IC50 against Tubulin [2] was 80 µM. `CC(=O)O[C@H]1C(=O)[C@@]2(C)[C@H]([C@H](OC(=O)c3ccccc3)[C@]3(O)C[C@H](OC(=O)[C@H](O)[C@@H](NC(=O)c4ccccc4)c4ccccc4)C(C)=C1C3(C)C)[C@]1(OC(C)=O)CO[C@@H]1C[C@@H]2O` [PACLITAXEL]: at Tubulin [1], the EC50 came to 0.83 µM. As to `CCOc1cc2c(cc1O)C(=O)C[C@@H]1[C@@H]2CC[C@]2(C)[C@@H](O)CC[C@@H]12`, the MGM with Cell line worked out at 0.13 µM. The molecule further gave an IC50 against Tubulin [2] of 3 µM. The molecule further displayed an inhibition on Tubulin (Bos taurus) [3] of 19%.

In the test on Cell line, `CCOc1cc2c(cc1O)/C(=N\O)C[C@@H]1[C@@H]2CC[C@]2(C)[C@@H](O)CC[C@@H]12` had an MGM of 0.079 µM. In the test on Cell line, `CCOc1cc2c(cc1O)C(=O)CCC1C2CC[C@@]2(C)C1CC[C@@H]2O` (some centres undefined) gave an MGM of 14.4 µM. Moreover, 130 µM corresponded to half-maximal inhibition against Tubulin [2] (IC50). In the case of `CCOc1cc2c(cc1OC(C)=O)C(=O)CCC1C2CC[C@@]2(C)C1CC[C@@H]2O` (some centres undefined), the EC50 at Tubulin [1] is 360 µM. In the test with Cell line, `CCOc1cc2c(cc1O)[C@H](NC(C)=O)CC[C@H]1C3CC[C@H](O)[C@@]3(C)CC[C@H]21` (some centres undefined) yielded an MGM of 90.4 µM. For the same molecule, the EC50 at Tubulin [1] was above 200 µM.

In the case of `CCOc1cc2c(cc1O)C/C(=N\O)CC1C2CC[C@@]2(C)C1CC[C@@H]2O` (some centres undefined), in the test on Cell line, the MGM came out at 42.7 µM. Besides, the IC50 on Tubulin [2] stood at 99 µM. The like results for `CCOc1cc2c(cc1OC(C)=O)CCCC1C2CC[C@@]2(C)C1CC[C@@H]2OC(C)=O` (some centres undefined) were, in that order, 14.5 µM and above 400 µM. On to `CCOc1cc2c(cc1O)CCCC1C2CC[C@@]2(C)C1CC[C@@H]2O` (some centres undefined), for which the MGM in the test on Cell line came to 2.48 µM. Besides, 0.97 µM corresponded to half-maximal inhibition on Tubulin [2] (IC50). On Tubulin (Bos taurus) [3], this molecule had an inhibition of 56%. `CCOc1cc2c(cc1O)/C(=N/O)CCC1C2CC[C@@]2(C)C1CC[C@@H]2O` (some centres undefined): the MGM in the test on Cell line was 51.3 µM. Besides, the IC50 at Tubulin [2] was found to be 57 µM.

With `CCOc1cc2c(cc1OC(C)=O)C(=O)CCC1C2CC[C@@]2(C)C1CC[C@@H]2OC(C)=O` (some centres undefined), the MGM in the test with Cell line was above 100 µM. The same molecule came in with an IC50 on Tubulin [2] of 5.5 µM.

As to `CCOc1cc2c(cc1O)C(=O)CCC1C2CC[C@@]2(C)C1CC[C@@H]2OC(C)=O` (some centres undefined), the concentration for a half-maximal effect (EC50) at Tubulin [1] was determined as 8.2 µM. Consider `CCOc1cc2c(cc1OC(C)=O)CC(=O)CC1C2CC[C@@]2(C)C1CC[C@@H]2OC(C)=O` (some centres undefined), for which the EC50 on Tubulin [1] is above 400 µM.
